From patent publication US10703765B2 (priority 2014, dated 2020)
Where a name gives a salt, the structure may show the parent alone. Read-outs that look alike come from different tables or passages of the source.

Target: human σ1 receptor (Homo sapiens, UniProt Q99720)
Assay: biochemical
Assay type: binding
Set-up: μ and σ1 dual binding: key to the marks not given beside the values
[1] = read-out: μ and σ1 dual binding

Sequence of human σ1 receptor (Q99720 whole entry): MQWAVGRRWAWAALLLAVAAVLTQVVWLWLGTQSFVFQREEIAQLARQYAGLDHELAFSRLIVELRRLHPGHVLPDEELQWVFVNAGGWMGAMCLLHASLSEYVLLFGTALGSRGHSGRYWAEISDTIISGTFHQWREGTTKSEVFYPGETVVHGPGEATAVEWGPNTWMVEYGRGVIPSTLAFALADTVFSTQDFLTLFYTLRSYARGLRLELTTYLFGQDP

SMILES | Ki [1] | further results
CC1OC2(CCN(CCc3ccccc3)CC2)CN(CCc2cccnc2)C1=O (stereo not drawn) [Example 175, 2-methyl-9-phenethyl-4-(2-(pyridin-3-yl)ethyl)-1-oxa-4,9-diazaspiro[5.5]undecan-3-one dihydrochloride] |  | Ki: < 0.5 µM
O=C1COC2(CCN(CCc3ccccc3)CC2)CN1Cc1ccc(F)cn1 [Example 176, 4-((5-fluoropyridin-2-yl)methyl)-9-phenethyl-1-oxa-4,9-diazaspiro[5.5]undecan-3-one hydrochloride] | < 0.5 µM | 
O=C1COC2(CCN(CCc3ccccc3)CC2)CN1Cc1ccc(C(F)(F)F)cn1 [Example 177, 9-phenethyl-4-((5-(trifluoromethyl)pyridin-2-yl)methyl)-1-oxa-4,9-diazaspiro[5.5]undecan-3-one hydrochloride] |  | Ki: < 0.1 µM
Cl.O=C1COC2(CCN(CCc3ccccc3)CC2)CN1CCc1ccncc1 [Example 178, 9-phenethyl-4-(2-(pyridin-4-yl)ethyl)-1-oxa-4,9-diazaspiro[5.5]undecan-3-one hydrochloride] |  | μ and σ1 dual binding: ++
O=C1COC2(CCN(CCc3ccccc3)CC2)CN1Cc1cccc([N+](=O)[O-])c1 [Example 179, 4-(3-nitrobenzyl)-9-phenethyl-1-oxa-4,9-diazaspiro[5.5]undecan-3-one] | > 0.5 µM | 
COCCCN1CC2(CCN(CCc3ccccc3)CC2)OC2(CC2)C1=O [Example 180, 12-(3-methoxypropyl)-8-phenethyl-4-oxa-8,12-diazadispiro[2.1.5.3]tridecan-13-one hydrochloride] | < 0.5 µM | 
N#CCCN1CC2(CCN(CCc3ccccc3)CC2)OC2(CC2)C1=O [Example 181, 3-[13-oxo-8-phenethyl-4-oxa-8,12-diazadispiro[2.1.5.3]tridecan-12-yl]propanenitrile hydrochloride] | > 0.5 µM | 
CN(C)C(=O)CCN1CC2(CCN(CCc3ccccc3)CC2)OC2(CC2)C1=O [Example 182, N,N-dimethyl-3-[13-oxo-8-phenethyl-4-oxa-8,12-diazadispiro[2.1.5.3]tridecan-12-yl]propanamide hydrochloride] | > 0.5 µM | 
CC1OC2(CCN(CCc3ccccc3)CC2)CN(CC(C)(C)O)C1=O (stereo not drawn) [Example 183, 4-(2-hydroxy-2-methylpropyl)-2-methyl-9-phenethyl-1-oxa-4,9-diazaspiro[5.5]undecan-3-one] | > 0.5 µM | 
COCCN1CC2(CCN(CCc3ccccc3)CC2)OC2(CC2)C1=O.Cl [Example 184, 12-(2-methoxyethyl)-8-phenethyl-4-oxa-8,12-diazadispiro[2.1.5.3]tridecan-13-one hydrochloride] |  | μ and σ1 dual binding: ++
O=C1N(CCOC2CCCCO2)CC2(CCN(CCc3ccccc3)CC2)OC12CC2 (stereo not drawn) [Example 185, 12-(2-((tetrahydro-2H-pyran-2-yl)oxy)ethyl)-8-phenethyl-4-oxa-8,12-diazadispiro[2.1.5.3]tridecan-13-one] | > 0.5 µM | 
COC(=O)CCN1CC2(CCN(CCc3ccccc3)CC2)OC2(CC2)C1=O [Example 186, methyl 3-(13-oxo-8-phenethyl-4-oxa-8,12-diazadispiro[2.1.5.3]tridecan-12-yl)propanoate] | > 0.5 µM | 
O=C1N(Cc2ccc(C(F)(F)F)cn2)CC2(CCN(CCc3ccccc3)CC2)OC12CC2 [Example 187, 8-phenethyl-12-{[5-(trifluoromethyl)pyridin-2-yl]methyl}-4-oxa-8,12-diazadispiro[2.1.5.3]tridecan-13-one dihydrochloride] | < 0.1 µM | 
Cl.O=C1COC2(CCN(Cc3ccccc3)CC2)CN1c1ccc(F)cc1 [Example 188, 9-benzyl-4-(4-fluorophenyl)-1-oxa-4,9-diazaspiro[5.5]undecan-3-one hydrochloride] |  | μ and σ1 dual binding: ++
O=C1COC2(CCN(CCc3ccccc3)CC2)CN1c1ccccc1F [Example 189, 4-(2-fluorophenyl)-9-phenethyl-1-oxa-4,9-diazaspiro[5.5]undecan-3-one] | < 0.5 µM | 
O=C1COC2(CCN(CCc3ccccc3)CC2)CN1c1ccc(F)cc1 [Example 190, 4-(4-fluorophenyl)-9-phenethyl-1-oxa-4,9-diazaspiro[5.5]undecan-3-one] | < 0.5 µM | 
O=C1COC2(CCN(CCc3ccccc3)CC2)CN1c1cccc(F)c1 [Example 191, 4-(3-fluorophenyl)-9-phenethyl-1-oxa-4,9-diazaspiro[5.5]undecan-3-one] | < 0.5 µM | 
CC1OC2(CCN(CCc3ccccc3)CC2)CN(c2ccccc2F)C1=O (stereo not drawn) [Example 192, 4-(2-fluorophenyl)-2-methyl-9-phenethyl-1-oxa-4,9-diazaspiro[5.5]undecan-3-one hydrochloride] | < 0.1 µM | 
CC1OC2(CCN(CCc3ccccc3)CC2)CN(c2ccccc2Cl)C1=O (stereo not drawn) [Example 193, 4-(2-chlorophenyl)-2-methyl-9-phenethyl-1-oxa-4,9-diazaspiro[5.5]undecan-3-one hydrochloride] | < 0.1 µM | 
CC1OC2(CCN(CCc3ccccc3)CC2)CN(c2cccnc2)C1=O (stereo not drawn) [Example 194, 2-methyl-9-phenethyl-4-(pyridin-3-yl)-1-oxa-4,9-diazaspiro[5.5]undecan-3-one hydrochloride] | < 0.5 µM | 

SMILES | Ki [1] | further results
CC1OC2(CCN(CCc3ccccc3)CC2)CN(c2cnccn2)C1=O (stereo not drawn) [Example 195, 2-methyl-9-phenethyl-4-(pyrazin-2-yl)-1-oxa-4,9-diazaspiro[5.5]undecan-3-one hydrochloride] | < 0.5 µM | 
CC1OC2(CCN(CCc3ccccc3)CC2)CN(c2ccccn2)C1=O.Cl (stereo not drawn) [Example 196, 2-methyl-9-phenethyl-4-(pyridin-2-yl)-1-oxa-4,9-diazaspiro[5.5]undecan-3-one hydrochloride] |  | μ and σ1 dual binding: ++
CCOC(=O)c1cccc(N2CC3(CCN(CCc4ccccc4)CC3)OC(C)C2=O)c1.Cl (stereo not drawn) [Example 197, ethyl 3-(2-methyl-3-oxo-9-phenethyl-1-oxa-4,9-diazaspiro[5.5]undecan-4-yl)benzoate hydrochloride] |  | μ and σ1 dual binding: ++
CC1OC2(CCN(CCc3ccccc3)CC2)CN(c2cccc(C#N)c2)C1=O.Cl (stereo not drawn) [Example 198, 3-(2-methyl-3-oxo-9-phenethyl-1-oxa-4,9-diazaspiro[5.5]undecan-4-yl)benzonitrile hydrochloride] |  | μ and σ1 dual binding: ++
CC1OC2(CCN(CCc3ccccc3)CC2)CN(c2cccc([N+](=O)[O-])c2)C1=O (stereo not drawn) [Example 199, 2-methyl-4-(3-nitrophenyl)-9-phenethyl-1-oxa-4,9-diazaspiro[5.5]undecan-3-one] | > 0.5 µM | 
CC1OC2(CCN(CCc3ccccc3)CC2)CN(c2nn(C)c3ccccc23)C1=O.Cl (stereo not drawn) [Example 200, 2-methyl-4-(1-methyl-1H-indazol-3-yl)-9-phenethyl-1-oxa-4,9-diazaspiro[5.5]undecan-3-one hydrochloride] |  | μ and σ1 dual binding: ++
CC1OC2(CCN(CCc3ccccc3)CC2)CN(c2ccc3cnn(C)c3c2)C1=O.Cl (stereo not drawn) [Example 201, 2-methyl-4-(1-methyl-1H-indazol-6-yl)-9-phenethyl-1-oxa-4,9-diazaspiro[5.5]undecan-3-one hydrochloride] |  | μ and σ1 dual binding: ++
CC1OC2(CCN(CCc3ccccc3)CC2)CN(c2ccc3c(c2)OCO3)C1=O (stereo not drawn) [Example 202, 4-(benzo[d][1,3]dioxol-5-yl)-2-methyl-9-phenethyl-1-oxa-4,9-diazaspiro[5.5]undecan-3-one hydrochloride] |  | Ki: < 0.5 µM
CC1OC2(CCN(CCc3ccccc3)CC2)CN(c2ccc3ncsc3c2)C1=O (stereo not drawn) [Example 203, 4-(benzo[d]thiazol-6-yl)-2-methyl-9-phenethyl-1-oxa-4,9-diazaspiro[5.5]undecan-3-one] |  | μ and σ1 dual binding: ++
CC1OC2(CCN(CCc3ccccc3)CC2)CN(c2nc3ccccc3s2)C1=O.Cl (stereo not drawn) [Example 204, 4-(benzo[d]thiazol-2-yl)-2-methyl-9-phenethyl-1-oxa-4,9-diazaspiro[5.5]undecan-3-one hydrochloride] |  | μ and σ1 dual binding: ++
CC1OC2(CCN(CCc3ccccc3)CC2)CN(c2ccncc2)C1=O.Cl (stereo not drawn) [Example 205, 2-methyl-9-phenethyl-4-(pyridin-4-yl)-1-oxa-4,9-diazaspiro[5.5]undecan-3-one hydrochloride] |  | μ and σ1 dual binding: ++
COc1ccccc1N1CC2(CCN(CCc3ccccc3)CC2)OC(C)C1=O (stereo not drawn) [Example 206, 4-(2-methoxyphenyl)-2-methyl-9-phenethyl-1-oxa-4,9-diazaspiro[5.5]undecan-3-one hydrochloride] | < 0.1 µM | 
CC1OC2(CCN(CCc3ccccc3)CC2)CN(c2cccc(C(F)(F)F)n2)C1=O (stereo not drawn) [Example 207, 2-methyl-9-phenethyl-4-(6-(trifluoromethyl)pyridin-2-yl)-1-oxa-4,9-diazaspiro[5.5]undecan-3-one] | < 0.1 µM | 
CC1OC2(CCN(CCc3ccccc3)CC2)CN(c2ncccc2F)C1=O (stereo not drawn) [Example 208, 4-(3-fluoropyridin-2-yl)-2-methyl-9-phenethyl-1-oxa-4,9-diazaspiro[5.5]undecan-3-one] | < 0.1 µM | 
CC1OC2(CCN(CCc3ccccc3)CC2)CN(c2nccs2)C1=O (stereo not drawn) [Example 209, 2-methyl-9-phenethyl-4-(thiazol-2-yl)-1-oxa-4,9-diazaspiro[5.5]undecan-3-one hydrochloride] | < 0.5 µM | 
CC1OC2(CCN(CCc3ccccc3)CC2)CN(c2cnn(C)c2)C1=O (stereo not drawn) [Example 210, 2-methyl-4-(1-methyl-1H-pyrazol-4-yl)-9-phenethyl-1-oxa-4,9-diazaspiro[5.5]undecan-3-one] |  | μ and σ1 dual binding (combined class from Ki-σ1 (human σ1 receptor, A1) and Ki-μ (human μ-opioid receptor, A2) radioligand binding): ++
COc1cccc(N2CC3(CCN(CCc4ccccc4)CC3)OC(C)C2=O)n1 (stereo not drawn) [Example 211, 4-(6-methoxypyridin-2-yl)-2-methyl-9-phenethyl-1-oxa-4,9-diazaspiro[5.5]undecan-3-one hydrochloride] |  | Ki: < 0.5 µM
CC1OC2(CCN(CCc3ccccc3)CC2)CN(c2ccc(C(F)(F)F)nc2)C1=O (stereo not drawn) [Example 212, 2-methyl-9-phenethyl-4-(6-(trifluoromethyl)pyridin-3-yl)-1-oxa-4,9-diazaspiro[5.5]undecan-3-one hydrochloride] | > 0.5 µM | 
CC1OC2(CCN(CCc3ccccc3)CC2)CN(c2cccnc2F)C1=O (stereo not drawn) [Example 213, 4-(2-fluoropyridin-3-yl)-2-methyl-9-phenethyl-1-oxa-4,9-diazaspiro[5.5]undecan-3-one] |  | Ki: < 0.1 µM
